Laboratory results as given in publication PMC5826973 (Frontiers in Pharmacology, 2018).

Key:
[1] = test system: SK-HEP1 HCC cells; assay: MTT-based cell proliferation assay, SK-HEP1; parameters: species or system human; settings: 48 h
Protocol: (§1) Human HCC cells SK-HEP1 and QGY; breast cancer cells HCC1954, BT474, and MDA-MB468; ovarian cancer cells SKOV3; and prostate cancer cells PC3 and LNCaP were purchased from the Cell Bank of Chinese Academy of Sciences (Shanghai, China), and cultured in T75 flasks with complete DMEM or RPMI 1640 medium (GIBCO, Invitrogen, Gaithersburg, CA, United States) supplemented with 10% FBS (Hyclone, New Zealand), and 1% penicillin/streptomycin (Solarbio, Beijing, China) at 37°C in a humidified atmosphere containing 5% CO2.
(§2) Cell proliferation was determined using methylthiazolyl diphenyl-tetrazolium bromide assay (MTT; Sigma–Aldrich). The cells were seeded onto 96-well plates in a total volume of 150 μl at a density of 3.5 × 10^4 cells/well. […] To avoid the effect of the solvent, the concentration of DMSO was less than 0.1% (v/v) in all experiments. After incubation at 37°C for 48 h, 10 μl of MTT solution (5 mg/ml) was added and continued to incubate for 4 h. Following removal of medium containing MTT, 200 μl of DMSO was added to dissolve the formazan crystals formed by live cells. Solution absorbance was measured at 490 nm with an absorbance microplate reader (BioTek, Winooski, VT, United States). The assay was repeated six times. The IC50 value was determined from plot of % viability against the dose of compounds added.

[2] = test system: QGY HCC cells; assay: MTT-based cell proliferation assay, QGY; parameters: species or system human; settings: Table 4, ZX-J-19 derivatives, 48 h
Protocol: as §1, §2

[3] = test system: HCC1954 breast cancer cells; assay: Growth inhibition, HCC1954; format: cell-based, human
Protocol: as §1, §2

[4] = test system: BT474 breast cancer cells; assay: Growth inhibition, BT474; format: cell-based, human
Protocol: as §1, §2

[5] = test system: MDA-MB-468 breast cancer cells; assay: Growth inhibition, MDA-MB-468; format: cell-based, human
Protocol: as §1, §2

[6] = test system: SKOV3 ovarian cancer cells; assay: Growth inhibition, SKOV3; format: cell-based, human
Protocol: as §1, §2

[7] = test system: PC3 prostate cancer cells; assay: Growth inhibition, PC3; format: cell-based, human
Protocol: as §1, §2

[8] = test system: LNCaP prostate cancer cells; assay: Growth inhibition, LNCaP; format: cell-based, human
Protocol: as §1, §2

O=C(Nc1ccc2nc(-c3ccccc3)c(-c3ccccc3)nc2c1)c1cccc(Cl)c1 [ZX-J-19e]
IC50 ([1]; Table 4, ZX-J-19 derivatives): 7.5 µM | IC50 [2]: 12.3 µM

O=C(Nc1ccc2nc(-c3ccccc3)c(-c3ccccc3)nc2c1)c1ccc(Cl)cc1 [ZX-J-19g]
IC50 ([1]; Table 4, ZX-J-19 derivatives): 9.89 µM | IC50 [2]: 11.3 µM

O=C(Nc1ccc2nc(-c3ccccc3)c(-c3ccccc3)nc2c1)c1ccccc1 [ZX-J-19h]
IC50 ([1]; Table 4, ZX-J-19 derivatives): 40.3 µM | IC50 [2]: 27.5 µM

CCC(=O)Nc1ccc2nc(-c3ccccc3)c(-c3ccccc3)nc2c1 [ZX-J-19i]
IC50 ([1]; Table 4, ZX-J-19 derivatives): 40.8 µM

CCCCCCCC(=O)Nc1ccc2nc(-c3ccccc3)c(-c3ccccc3)nc2c1 [ZX-J-19j, N-(2,3-diphenylquinoxalin-6-yl)octanamide]
IC50 ([1]; Homo sapiens, SK-HEP1, Table 4, ZX-J-19 derivatives): 6.73 µM | IC50 ([2]; Homo sapiens): 12.5 µM | inhibition at 20 µM ([3]; Homo sapiens): 64.2% | inhibition at 20 µM ([4]; Homo sapiens, BT-474): 84% | inhibition at 20 µM ([5]; Homo sapiens): 84.7% | inhibition at 20 µM ([6]; Homo sapiens, SK-OV-3): 48.1% | inhibition at 20 µM ([7]; Homo sapiens): 84.7% | inhibition at 20 µM ([8]; Homo sapiens): 48.1%

CC(=O)Nc1ccc2nc(-c3ccccc3)c(-c3ccccc3)nc2c1 [ZX-J-19k]
IC50 ([1]; Table 4, ZX-J-19 derivatives): 7.53 µM | IC50 [2]: 199 µM

CCCC(=O)Nc1ccc2nc(-c3ccccc3)c(-c3ccccc3)nc2c1 [ZX-J-19l]
IC50 ([1]; Table 4, ZX-J-19 derivatives): 3.51 µM | IC50 [2]: 21.4 µM | % Growth inhibition at 20 μM [3]: 91.258% | % Growth inhibition at 20 μM [4]: 90.963% | % Growth inhibition at 20 μM [5]: 90.849% | % Growth inhibition at 20 μM [6]: 90.919% | % Growth inhibition at 20 μM [7]: 91.039% | % Growth inhibition at 20 μM [8]: 91.038%

CC(C)(C)C(=O)Nc1ccc2nc(-c3ccco3)c(-c3ccco3)nc2c1 [ZX-J-19m]
IC50 ([1]; Table 4, ZX-J-19 derivatives): 76.7 µM | IC50 [2]: 82.3 µM

CCCC(=O)Nc1ccc2nc(-c3ccco3)c(-c3ccco3)nc2c1 [ZX-J-19n]
IC50 ([1]; Table 4, ZX-J-19 derivatives): 17.7 µM | IC50 [2]: 18 µM

CCCCCCCC(=O)Nc1ccc2nc(-c3ccco3)c(-c3ccco3)nc2c1 [ZX-J-19o]
IC50 ([1]; Table 4, ZX-J-19 derivatives): 17.3 µM | IC50 [2]: 98.4 µM

O=C(Nc1ccc2nc(-c3ccco3)c(-c3ccco3)nc2c1)c1ccccc1Cl [ZX-J-19p]
IC50 ([1]; Table 4, ZX-J-19 derivatives): 45.7 µM

O=C(Nc1ccc2nc(-c3ccco3)c(-c3ccco3)nc2c1)c1ccc([N+](=O)[O-])cc1 [ZX-J-19q]
IC50 ([1]; Table 4, ZX-J-19 derivatives): 43.6 µM | IC50 [2]: 44.3 µM

O=C(Nc1ccc2nc(-c3ccco3)c(-c3ccco3)nc2c1)c1ccccc1 [ZX-J-19r]
IC50 ([1]; Table 4, ZX-J-19 derivatives): 18.8 µM | IC50 [2]: 17.3 µM

O=C(Nc1ccc2nc(-c3ccc[nH]3)c(-c3ccc[nH]3)nc2c1)c1ccc(Cl)cc1 [ZX-J-19t]
IC50 ([1]; Table 4, ZX-J-19 derivatives): 46.3 µM | IC50 [2]: 42.5 µM

CC(=O)Nc1ccc2nc(-c3ccc[nH]3)c(-c3ccc[nH]3)nc2c1 [ZX-J-19u]
IC50 ([1]; Table 4, ZX-J-19 derivatives): 14.2 µM | IC50 [2]: 32.7 µM

O=C(CCl)Nc1ccc2nc(-c3ccc[nH]3)c(-c3ccc[nH]3)nc2c1 [ZX-J-19v]
IC50 ([1]; Table 4, ZX-J-19 derivatives): 140 µM | IC50 [2]: 127 µM
